This note sets out measurements from patent publication EP4782431A1 (Suzhou Merna Therapeutics Co. Ltd, priority 2023, dated 2025).

The assay deals with keratinocyte differentiation markers KRT1, KRT10, Loricrin, and Involucrin. In words: inhibition of HBEGF-induced differentiation of HaCaT keratinocytes (RT-PCR). The assay is classed as cell-based. To be noted: with 2.5 ng/mL recombinant human HBEGF protein, 24 hours. How it is done:
Human HaCaT keratinocytes were cultured in DMEM culture medium containing 10% fetal bovine serum, 100 U/mL penicillin, and 100 µg/mL streptomycin. The cells were seeded into a 96-well plate at a density of […] and placed in an incubator containing 5% carbon dioxide for culture at 37°C for 24 hours. An equal volume of DMSO was added into control well 1, a 2.5 ng/mL recombinant human HBEGF protein (Abcam, ab205523) was added into control well 2, and a 2.5 ng/mL recombinant human HBEGF protein and corresponding concentrations of test compounds were added into sample wells. The cells were continuously cultured for 24 hours, washed with PBS, and then collected by high-speed centrifugation. Total RNA was extracted using Trizol reagent (Sigma Aldrich). 1 µg of RNA was reverse-transcribed into cDNA using a cDNA reverse transcription kit (Transgene Biotech, AT311-03). 1.25 µL of a primer (with a primer sequence shown in Table 2), 10 µL of an iTag Universal SYBR Green supermix (Bio-Rad, 172-5125), and an appropriate amount of DEPC ultrapure water were added to formulate 20 µL of a reaction solution to perform an RT-PCR reaction. Upon completion of the reaction, the reaction solution was subjected to agarose gel electrophoresis to determine the mRNA expression level of keratinocyte differentiation markers KRT1, KRT10, Loricrin, and Involucrin. […]

For the molecule `NC(=O)[C@H]1CCCc2c1[nH]c1ccc(Cl)cc21` [Compound of formula (I), (S)-6-chloro-2,3,4,9-tetrahydro-1H-carbazole-carboxamide], the “mRNA expression level of the HaCaT differentiation markers KRT1, KRT10, Loricrin, and Involucrin” value is listed as “significantly inhibited”.
